Measured values published in patent publication US8283353B2, “Fused ring compound and use thereof” (Takeda Pharmaceutical Company Limited, priority 2009, dated 2012).

Legend:
human AT1 receptor = target: T1, human AT1 receptor (Homo sapiens, UniProt P30556); assay: AT1 receptor antagonistic activity: [125I]-angiotensin II binding assay on human AT1 receptor-expressing CHO-K1 cellular membrane fraction; conditions: 22.5 pM [125I]-angiotensin II, 1 hr room temperature
T1 construct: expressed in transfected cells; membrane fraction
T1 sequence (P30556 1-359): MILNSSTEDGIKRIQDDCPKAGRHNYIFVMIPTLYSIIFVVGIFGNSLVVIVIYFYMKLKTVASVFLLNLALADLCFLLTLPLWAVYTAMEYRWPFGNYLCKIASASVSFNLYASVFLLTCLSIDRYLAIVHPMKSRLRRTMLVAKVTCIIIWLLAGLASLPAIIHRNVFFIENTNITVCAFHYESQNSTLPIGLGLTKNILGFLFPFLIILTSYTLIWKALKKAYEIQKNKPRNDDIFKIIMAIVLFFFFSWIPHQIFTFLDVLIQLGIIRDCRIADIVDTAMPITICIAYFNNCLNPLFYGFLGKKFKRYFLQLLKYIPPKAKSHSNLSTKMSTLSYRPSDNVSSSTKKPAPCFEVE
Procedure: CHO-K1 cell (RIKEN, Japan) capable of stable expression of human AT1 receptor was cultured, recovered, suspended in homogenize buffer (10 mM NaHCO3 (pH 7.4), 5 mM EDTA, 1× Complete EDTA free) [manufactured by Roche, Switzerland], and homogenized. The homogenate was centrifuged at low-speed (900×g, 10 min, 4° C.), and the supernatant was recovered and ultracentrifuged (90,000×g, 1 hr, 4° C.). The supernatant was discarded, and the pellets were resuspended in suspension buffer (50 mM Tris (pH 7.4), 1 mM EDTA, 1× Complete EDTA free).
(9 μg) in the presence of AT1 membrane and test compound in 100 μl, (total reaction volume) of reaction buffer (50 mM Tris (pH 7.4), 10 mM MgCl2 supplemented or not supplemented with 0.3 mg/mL fatty acid-free bovine serum albumin [manufactured by Wako Pure Chemical Industries, Ltd., Japan]). The reaction mixture was incubated in 96 well polypropylene plate for 1 hr at room temperature, and the reaction was quenched by rapid filtration (96 well cell harvester) through a GF/C filter treated with wash buffer (50 mM Tris (pH 7.4)). Subsequently, the filter was washed 5 times with 0.3 mL of ice-cooled wash buffer. […] Total binding was measured in the presence of 1% DMSO and nonspecific binding was measured in the presence of […] Candesartan.

human PPARγ = target: T2, human PPARγ (Homo sapiens, UniProt P37231); assay: PPARγ agonistic activity: luciferase reporter assay in PPARγ:RXRα:4ERPP/CHO-K1 cells; assay type: cell-based; conditions: CHO-K1, test compound 10^−6 M; luciferase activity of control compound X (1 μM) = 100%, non-administration group = 0%
T2 construct: expressed in transfected cells
T2 sequence (P37231 1-477 isoform P37231-2): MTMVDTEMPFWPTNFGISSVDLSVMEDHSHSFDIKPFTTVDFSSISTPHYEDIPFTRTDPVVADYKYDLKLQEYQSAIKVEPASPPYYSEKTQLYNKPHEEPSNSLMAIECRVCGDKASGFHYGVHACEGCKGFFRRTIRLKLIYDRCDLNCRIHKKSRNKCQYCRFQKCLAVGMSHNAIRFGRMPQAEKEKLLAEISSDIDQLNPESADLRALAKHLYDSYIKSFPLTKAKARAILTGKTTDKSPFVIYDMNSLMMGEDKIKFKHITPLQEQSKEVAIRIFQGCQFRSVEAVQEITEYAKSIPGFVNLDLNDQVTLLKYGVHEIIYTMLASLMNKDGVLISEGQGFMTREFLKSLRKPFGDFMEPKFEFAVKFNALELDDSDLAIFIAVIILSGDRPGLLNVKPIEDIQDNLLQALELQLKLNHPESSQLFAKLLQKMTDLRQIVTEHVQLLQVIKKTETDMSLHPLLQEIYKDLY
T2 sequence (P19793 1-462 partner): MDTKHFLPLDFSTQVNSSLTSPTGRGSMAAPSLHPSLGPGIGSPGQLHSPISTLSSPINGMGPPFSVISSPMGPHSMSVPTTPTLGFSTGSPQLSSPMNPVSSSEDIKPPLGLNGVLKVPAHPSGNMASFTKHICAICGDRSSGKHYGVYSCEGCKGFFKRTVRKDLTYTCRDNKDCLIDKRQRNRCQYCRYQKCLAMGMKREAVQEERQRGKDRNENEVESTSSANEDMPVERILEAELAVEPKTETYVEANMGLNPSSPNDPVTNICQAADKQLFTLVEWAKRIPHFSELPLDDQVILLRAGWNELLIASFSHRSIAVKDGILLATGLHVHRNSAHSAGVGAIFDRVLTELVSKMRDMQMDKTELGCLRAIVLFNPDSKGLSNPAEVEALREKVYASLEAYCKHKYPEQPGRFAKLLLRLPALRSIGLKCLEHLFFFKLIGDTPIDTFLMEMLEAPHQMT
Source text: A CHO-K1 cell cultured in a 150 cm^2 cell culture flask [manufactured by Corning Costar Corporation, USA] comprising Ham's F12 medium [manufactured by INVITROGEN, USA] supplemented with 10% fetal bovine serum [manufactured by INVITROGEN, USA] was taken off by treating with 0.5 g/L trypsin-0.2 g/L EDTA (ethylenediamine tetraacetate) [manufactured by Life Technologies, Inc., USA], and then the cell was washed with PBS (Phosphate-buffered saline) [manufactured by INVITROGEN, USA], centrifuged (1000 rpm, 5 minutes) and suspended in PBS. Subsequently, DNA was introduced into the cell under the conditions shown below using GENE PULSER [manufactured by Bio-Rad Laboratories, USA].
Namely, to a cuvette having a 0.4 cm gap were added 8×10^6 cells and 10 μg of plasmid pVgRXR2-hPPARγ obtained in the above-mentioned (4) and 10 μg of reporter plasmid pGL3-4ERPP-TK neo obtained in the above-mentioned (3), which was subjected to electroporation at the voltage of 0.25 kV under the capacitance of […] Subsequently, the cell was transferred into a F12 medium comprising 10% fetal bovine serum and cultured for 24 hours, and then the cell was taken off again and centrifuged. Then, the pellet was suspended in Ham's F12 medium comprising 10% fetal bovine serum supplemented with 500 μg/ml of Geneticin [manufactured by INVITROGEN, USA] and 250 μg/ml of Zeocin [manufactured by INVITROGEN, USA]. The obtained suspension was diluted to the density of 10^4 cells/ml and inoculated in a 96-well plate [manufactured by Corning Costar Corporation, USA], which was cultured in a CO2 gas incubator at 37° C., whereby obtaining a Geneticin- and Zeocin-resistant transformant.
Subsequently, after the transformed cell line thus obtained was cultured in a 24-well plate [manufactured by Corning Costar Corporation, USA], a cell line in which expression of the luciferase was induced, i.e., PPARγ:RXRα:4ERPP/CHO-K1 cell was selected by the addition of 10 μM pioglitazone hydrochloride.
PPARγ:RXRα:4ERPP/CHO-K1 cells obtained in the above-mentioned (5) were cultured in F12 medium [manufactured by INVITROGEN, USA] containing 10% fetal bovine serum [manufactured by MOREGATE, Australia], seeded in a 96 well half-area white plate [manufactured by Corning Coster Corporation, USA] at 5×10^3 cells/well, and cultured in a CO2 incubator at 37° C. overnight.
Then, the medium was removed from the 96 well half-area white plate, hamF12 medium containing 0.1% fatty acid-free bovine serum albumin (BSA) (45 μl) and a test compound (5 μl) were added, and the mixture was cultured in the CO2 incubator at 37° C. for 1 day. After removing the medium, Picagene 7.5 [manufactured by Dai Nippon Inki, Japan] (20 μl) diluted 2-fold with HBSS (HANKS' BALANCED SALT SOLUTION) [manufactured by BIO […], USA] was added, and the mixture was stirred. Using 1420 ARVO Multilabel Counter [manufactured by PerkinElmer, USA], luciferase activity was measured. The percentage (%) was calculated from the luciferase activity of the test compound when the luciferase activity of the control compound (compound X: 5-[3-(4-{[2-(2-furyl)-5-methyl-1,3-oxazol-4-yl]methoxy}-3-methoxyphenyl)propyl]-1,3-oxazolidine-2,4-dione) (1 μM) was taken as 100% and the luciferase activity of the test compound non-administration group was taken as 0%.

Row | IC50 (human AT1 receptor) [nM] | activation at 1 µM (human PPARγ) [%] | SMILES
1 | 2 | 31 | CCCc1c(Cc2ccc(-c3ccccc3-c3noc(=O)[nH]3)cc2)c(=O)n(CC2CC2)c2ncnn12 [Example 21, 4-(cyclopropylmethyl)-6-{[2′-(5-oxo-4,5-dihydro-1,2,4-oxadiazol-3-yl)biphenyl-4-yl]methyl}-7-propyl[1,2,4]triazolo[1,5-a]pyrimidin-5(4H)-one]
2 | 3 | 49 | CCCc1c(Cc2ccc(-c3ccccc3-c3noc(=O)[nH]3)cc2)c(=O)n(Cc2ccc(C(C)=O)cc2)c2ncnn12 [Example 28, 4-(4-acetylbenzyl)-6-{[2′-(5-oxo-4,5-dihydro-1,2,4-oxadiazol-3-yl)biphenyl-4-yl]methyl}-7-propyl[1,2,4]triazolo[1,5-a]pyrimidin-5(4H)-one]
3 | 3 | 16 | CCCc1c(Cc2ccc(-c3ccccc3-c3noc(=O)[nH]3)cc2)c(=O)n(CCC)c2ncnn12 [Example 29, 6-{[2′-(5-oxo-4,5-dihydro-1,2,4-oxadiazol-3-yl)biphenyl-4-yl]methyl}-4,7-dipropyl[1,2,4]triazolo[1,5-a]pyrimidin-5(4H)-one]
4 | 2.5 | 33 | CCCc1c(Cc2ccc(-c3ccccc3-c3noc(=O)[nH]3)cc2F)c(=O)n(Cc2ccc(OC)cc2OC)c2ncnn12 [Example 37, 4-(2,4-dimethoxybenzyl)-6-{[3-fluoro-2′-(5-oxo-4,5-dihydro-1,2,4-oxadiazol-3-yl)biphenyl-4-yl]methyl}-7-propyl[1,2,4]triazolo[1,5-a]pyrimidin-5(4H)-one]
5 | 2.1 | 34 | CCCc1c(Cc2ccc(-c3ccccc3-c3noc(=O)[nH]3)cc2F)c(=O)n(-c2ccc(OC(C)C)cc2)c2ncnn12 [Example 43, 6-{[3-fluoro-2′-(5-oxo-4,5-dihydro-1,2,4-oxadiazol-3-yl)biphenyl-4-yl]methyl}-4-[4-(1-methylethoxy)phenyl]-7-propyl[1,2,4]triazolo[1,5-a]pyrimidin-5(4H)-one]
6 | 1.7 | 17 | CCCc1c(Cc2ccc(-c3ccccc3-c3noc(=O)[nH]3)cc2)c(=O)n(C(C)CC)c2nc(C)nn12 (stereo not shown) [Example 68, 2-methyl-4-(1-methylpropyl)-6-{[2′-(5-oxo-4,5-dihydro-1,2,4-oxadiazol-3-yl)biphenyl-4-yl]methyl}-7-propyl[1,2,4]triazolo[1,5-a]pyrimidin-5(4H)-one]
7 | 1.4 | 27 | CCCc1c(Cc2ccc(-c3ccccc3-c3noc(=O)[nH]3)cc2)c(=O)n(CC2(C)CC2)c2nc(C)nn12 [Example 69, 2-methyl-4-[(1-methylcyclopropyl)methyl]-6-{[2′-(5-oxo-4,5-dihydro-1,2,4-oxadiazol-3-yl)biphenyl-4-yl]methyl}-7-propyl[1,2,4]triazolo[1,5-a]pyrimidin-5(4H)-one]
8 | 1.5 | 20 | CCCc1c(Cc2ccc(-c3ccccc3-c3noc(=O)[nH]3)cc2)c(=O)n(CC(C)(C)COC)c2nc(C)nn12 [Example 73, 4-(3-methoxy-2,2-dimethylpropyl)-2-methyl-6-{[2′-(5-oxo-4,5-dihydro-1,2,4-oxadiazol-3-yl)biphenyl-4-yl]methyl}-7-propyl[1,2,4]triazolo[1,5-a]pyrimidin-5(4H)-one]
9 | 2.1 | 25 | CCCc1c(Cc2ccc(-c3ccccc3-c3noc(=O)[nH]3)cc2)c(=O)n(C2C=CCCC2)c2nc(C)nn12 (stereo not shown) [Example 74, 4-(cyclohex-2-en-1-yl)-2-methyl-6-{[2′-(5-oxo-4,5-dihydro-1,2,4-oxadiazol-3-yl)biphenyl-4-yl]methyl}-7-propyl[1,2,4]triazolo[1,5-a]pyrimidin-5(4H)-one]
10 | 1.8 | 21 | CCCc1c(Cc2ccc(-c3ccccc3-c3noc(=O)[nH]3)cc2)c(=O)n(C2CCCCC2)c2nc(C)nn12 [Example 78, 4-cyclohexyl-2-methyl-6-{[2′-(5-oxo-4,5-dihydro-1,2,4-oxadiazol-3-yl)biphenyl-4-yl]methyl}-7-propyl[1,2,4]triazolo[1,5-a]pyrimidin-5(4H)-one]
11 | 1.5 | 16 | CCCc1c(Cc2ccc(-c3ccccc3-c3noc(=O)[nH]3)cc2)c(=O)n(C2CCC2)c2nc(C)nn12 [Example 83, 4-cyclobutyl-2-methyl-6-{[2′-(5-oxo-4,5-dihydro-1,2,4-oxadiazol-3-yl)biphenyl-4-yl]methyl}-7-propyl[1,2,4]triazolo[1,5-a]pyrimidin-5(4H)-one]
